Assay results: patent US20190315775A1, “MODIFIED […] AND PHARMACEUTICAL COMPOSITION HAVING SAME AS ACTIVE INGREDIENT” (KEIO UNIVERSITY, priority 2016, published 2019)

Legend:
[1] = tested on: MDA-MB-231 (human breast cancer cells); assay: WST-1 proliferation assay (Example 10), MDA-MB-231; type: cell-based; conditions: WST-1, 48 hours
Description: (§1) Cancer cells used herein were KMS34 (human myeloma cells), HeLa (human cervical cancer cells), HCT116 (human colon cancer cells; p53+/+), KATOIII (human stomach cancer cells), MDA-MB-231 (human breast cancer cells), HT-29 (human colon adenocarcinoma cells), PANC-1 (human pancreatic cancer cells), and Li-7 (human liver cancer cells). Proliferation assay of various cancer cells was performed by the WST-1 method (Cook, J A. & Mitchell, J B., Anal. Biochem., 179, 1-7, 1984) as follows. One μ1 each of PEG11(E)-TC11 and PEG11(O)-TC11 prepared in advance at target concentrations was added into each well of a 96-well microplate. Medium was added to the wells at 50 μl per well, and then mixed by tapping lightly the plate. Subsequently, KMS34 was prepared at a concentration of 5×10^5 cells/ml, and cells other than KMS34 were prepared at a concentration of 2×10^5 cells/ml. Cells were seeded at 50 μl per well (2.5×10^4 cells, 1×10^4 cells), and then incubated in a CO2 incubator (37° C., 5% CO2) for 48 hours. […] Subsequently, the plate was shaken with a plate reader for 1 minute, and then absorbance was measured at 450 nm. At this time, absorbance was also measured at 595 nm as a reference wavelength. The net absorbance was obtained by subtracting the absorbance at the reference wavelength from the absorbance at 450 nm.

[2] = tested on: Li-7 (human liver cancer cells); assay: WST-1 proliferation assay (Example 10), Li-7; type: cell-based; conditions: U-7 (head of Table 4), WST-1, 48 hours
Description: as §1

KMS11 xenograft = assay: Antitumor effect on KMS11-bearing mice (Example 16); type: in vivo, ICR/SCID mice; conditions: for Body weight compared to the control group: at the doses suppressing tumor growth; for Tumor volume compared to the control: i.p., equimolar to TC11 60 mg/kgBW
Description: TC11 and its derivatives were examined for in vivo antitumor effects using 6 KMS11 xenograft model mice. KMS11 was administered to 6-week-old ICR/SCID mice at 3×10^7 cells/mouse via hypodermic injection. Tumor volume was measured over time. The day on which each tumor volume exceeded 50 mm^3 was designated as Day 1 and observation was performed for 14 days. The single dosage of TC11 was 60 mg/kgBW, the intraperitoneal dosages of PEG11(E)-TC11 and PEG11(O)-TC11 were 177.3 mg/kgBW and 163.8 mg/kgBW, respectively, which were equimolar amounts of that of TC11. […] The final composition of the solvent was 10% DMSO+1% Tween 80/physiological saline. […] Drug administration was performed for two out of every 3 days (Day 1, 2, 4, 5, 7, 8, 10, 11, […], 13). Mice were sacrificed on Day 14, and then tumor weights were measured and in vivo findings were confirmed.

[3] = Water solubility of drugs (saturation concentration by HPLC); type: physicochemical; conditions: 100 mM Tris-HCl (pH 7.5); for Water solubility: 25° C., saturation concentration; for Water solubility, relative ratio (numerals in parentheses): relative to TC11
[4] = tested on: PANC-1 (human pancreatic cancer cells); assay: WST-1 proliferation assay (Example 10), PANC-1; type: cell-based; conditions: WST-1, 48 hours
Description: as §1

[5] = Stability in mouse blood after intraperitoneal administration (HPLC); type: in vivo, ICR mice; conditions: for Residual drug within the abdominal cavity: after intraperitoneal administration to mice; for Stability in mouse blood: i.p., equimolar to 20 mg/kg BW TC11, HPLC peaks 0.5-1.5 hours after administration
Description: First, PEG11(E)-TC11(A) and PEG11(O)-TC11(B) were examined for stability in mouse blood. To 5-week-old male ICR mice (CLEA Japan, Tokyo, Japan), PEG11(E)-TC11 and PEG11(O)-TC11 were administered intraperitoneally at 59.1 mg/kg BW and 54.6 mg/kg BW, respectively, in such a manner that each molar concentration was equivalent to that of 20 mg/kg BW of TC11. At 0, 0.5, 1, 1.5, 4, 8, 12, and 24 hours later, a tail vein was punctured with a 26G needle for bleeding, and then about 100 μL of blood was collected using a heparinized hematocrit capillary tube (Terumo, Tokyo, Japan). After blood collection, blood was transferred into a 0.5-mL tube, and then subjected to centrifugation at 4° C. and 3,400 G for 15 minutes. Subsequently, the supernatant was collected, and then cryopreserved at −80° C. A quality control serum, Consera (registered trademark) (Nissui pharmaceutical, Tokyo, Japan) was dissolved in 3 mL of distilled water (dH2O) per bottle. After left to stand for 30 minutes, bottles were turned upside-down (mixing by inversion) and then used. Consera (190 μL) was mixed with the collected blood plasma and 10 μL of urine, thereby preparing samples. Moreover, PEG11(E)-TC11 and HOEtO-TC11 were each diluted with dH2O in such a manner that the concentrations were 0, 2, 4, 6, 8, and 10 μM, and then 10 μL of the solution at each concentration and 190 μL of Consera were mixed, thereby preparing a calibration curve sample. Sep-Pak (registered trademark) C18 solid phase extraction cartridge (Waters Associates, Massachusetts, USA) was washed with 2 mL of 100% CH3CN, and then equilibrated with 4 mL of dH2O. Each sample and a sample for preparing a calibration curve were added to the cartridge, and then rinsed with 200 μL of dH2O. Subsequently, the resultant was washed with 2 mL of dH2O, 2 mL of 40% CH3CN, and 250 μL of 100% CH3CN, and then eluted with 1 mL of 100% CH3CN. The eluate was evaporated under vacuum using a centrifugal evaporator CVE-2000 (TOKYO […] CO, LTD, Tokyo, Japan), re-dissolution was performed with 100 μL of 100% EtOH, and then filtration was performed using a chromatodisc having a pore size of 0.45 μm (GL sciences, Tokyo, Japan). The high performance liquid chromatography (High Performance Liquid Chromatography; HPLC) apparatuses used herein are the following apparatuses manufactured by JASCO (Tokyo, Japan).
HPLC analysis was conducted using Inertsil (registered trademark) ODS-3 […]×Φ4.6 mm as a stationary phase, CH3CN:dH2O=50:50 as a mobile phase, a flow rate of 0.70 mL/min, a UV detection wavelength of 267 nm, and an excitation wavelength of 380 nm, a fluorescence wavelength of 530 nm, and an injection amount of 10 μL at a column temperature of 25° C.

[6] = 6 KMS11 xenograft model mice, i.p. 177.3 mg/kgBW

SMILES	IC50 [1]	IC50 [2]	Mice from which the primary lesion had completely disappeared (KMS11 xenograft; [6])	Mice having tumor sizes almost the same as at initiation of administration (KMS11 xenograft; [6])	Body weight compared to the control group (KMS11 xenograft; KMS11 xenograft mice)	Tumor volume compared to TC11 (KMS11 xenograft; KMS11 xenograft mice, i.p. 177.3 mg/kgBW, 14 days)	Tumor volume compared to the control (KMS11 xenograft; KMS11 xenograft mice, 14 days)	Water solubility [3]	Water solubility, relative ratio (numerals in parentheses) [3]	IC50 [4]	Residual drug within the abdominal cavity [5]	Stability in mouse blood [5]
COCCOCCOCCOCCOCCOCCOCCOCCOCCOCCOCCOCCC(=O)OCCOc1cc2c(cc1N)C(=O)N(c1c(C(C)C)cccc1C(C)C)C2=O [PEG11(E)-TC11]	11 µM	9.4 µM	1 mouse	3 mice	no decrease in body weight	significant decrease in tumor volume compared to TC11	significant decreases in tumor volume	8.89 g/100 ml	4,447 ×	14 µM	no residual drug was observed	quickly hydrolyzed with esterase in blood, and converted to HOEtO-TC11
COCCOCCOCCOCCOCCOCCOCCOCCOCCOCCOCCOCCOc1cc2c(cc1N)C(=O)N(c1c(C(C)C)cccc1C(C)C)C2=O [PEG11(O)-TC11]	80 µM	87 µM			no decrease in body weight		significant decreases in tumor volume	1.47 g/100 ml	735 ×	75 µM	no residual drug was observed	not degraded with esterase in blood
CC(C)c1cccc(C(C)C)c1N1C(=O)c2ccc(N)cc2C1=O [TC11, 2-(2,6-di-isopropylphenyl)-5-amino-1H-isoindole-1,3-dione, reference compound]					no decrease in body weight		significant decreases in tumor volume	0.002 g/100 ml	1 ×			
